In EP0158545A1, “[Alpha-(alkylaminomethyl)-benzylthio]-acetic-acid derivatives, process for their preparation and their therapeutic use” (priority 1984, dated 1985):
“Also recorded” adds a separate entry of the source.

Tests used:
chiens [1] = assay: Cardiovascular tests in dogs, intraduodenal successive doses; type: in vivo, chien
Procedure: a) Quatre chiens (poids moyen : 13,8 kg) anesthésiés au nembutal reçoivent le CRL 41 250 par voie intraduodénale, aux doses successives de 0,1 mg/kg, 0,5 mg/kg, 1 mg/kg, 2,5 mg/kg, 5 mg/kg puis 10 mg/kg. On mesure la pression artérielle, la fréquence cardiaque, le débit artériel fémoral, le débit artériel vertébral, la température rectale et on observe la coloration de la peau.
a) Deux chiens (poids moyen : 14,5 kg) reçoivent le CRL 41 252 par voie intraduodénale, aux doses successives de 0,1 mg/kg, 0,5 mg/kg, 1 mg/kg, 2,5 mg/kg, 5 mg/kg, 10 mg/kg et 20 mg/kg. On mesure la pression artérielle, la fréquence cardiaque, le débit artériel fémoral, le débit artériel vertébral, les températures rectale et cutanée et on observe la coloration de la peau.

chiens [2] = assay: Influence on isoprenaline effects, dog; type: in vivo; conditions: chien
Source text: (§1) b) Sur les mêmes chiens on a étudié l'influence du produit vis à vis de l'isoprénaline et de la noradrénaline.
Avec 10,pg/kg I.V. d'isoprénaline la pression artérielle diastolique du CRL 41 252 passe de 128 à […] ([…] à 6,4 x 10^3 Pa), […]

chiens [3] = assay: Influence on noradrenaline hypertension, dog; type: in vivo; conditions: chien
Procedure: as §1
L'hyptertension à la noradrénaline (2 µg/kg I.V.) est augmentée par le CRL 41 252 ([…]), la pression artérielle systolique passe de 208 à 352 mmHg (soit environ de 2,77 x 10^4 à 4,7 x 10^4Pa) au lieu de 204 à 328 mmHg (soit environ de 2,71 à 4,3 x 10 Pa).

[4] = test system: système nerveux central (SNC); assay: General statement of CNS (antidepressant, sedative) properties; type: in vivo
chiens [5] = assay: Cardiovascular tests in dogs, intraduodenal successive doses; type: in vivo; conditions: chien, injection I.M. de 10 mg/kg
[6] = chien, successive I.D. doses 0,1 to 20 mg/kg

## CC(C)(C)NCC(SCC(N)=O)c1ccccc1F (racemic) [CRL 41 252, fumaratede [α-(tertiobutylaminométhyl)-2-fluorobenzyl]-thioacétamide]
Chiens [1]; [6]
  pression artérielle et fréquence cardiaque: n'a pas d'effet sur la pression artérielle ni sur la fréquence cardiaque
  températures rectale et cutanée: augmente les températures rectale et cutanée
Chiens [1]; chien, voie intraduodénale, à partir de 10 mg/kg I.D.
  débits fémoraux: augmente les débits fémoraux à partir de la dose de 10 mg/kg I.D.
Chiens [1]; general statement
  effets vasodilatateurs (propriétés cardiovasculaires): effets vasodilatateurs intéressants; also recorded: effets vasodilatateurs bénéfiques
Chiens [2]; after dose cumulée 39,1 mg/kg I.D., control 152
  pression artérielle diastolique, before isoprénaline: 128 mmHg
Chiens [2]; after dose cumulée 39,1 mg/kg I.D., control 192
  fréquence cardiaque, before isoprénaline: 215 battements/ minute
Chiens [2]; after dose cumulée de 39,1 mg/kg I.D.
  effets de l'isoprénaline: légèrement diminués
Chiens [2]; isoprénaline 10,pg/kg I.V., after dose cumulée 39,1 mg/kg I.D., control 48
  pression artérielle diastolique, after isoprénaline: 58 mmHg
Chiens [2]; isoprénaline 10,pg/kg I.V., after dose cumulée 39,1 mg/kg I.D., control 310
  fréquence cardiaque, after isoprénaline: 302 battements/ minute
Chiens [3]; after dose cumulée 39,1 mg/kg I.D., control 204
  pression artérielle systolique, before noradrénaline: 208 mmHg
Chiens [3]; noradrénaline 2 µg/kg I.V., after dose cumulée 39,1 mg/kg I.D., control 328
  pression artérielle systolique, after noradrénaline: 352 mmHg
Chiens [3]; noradrénaline 2 µg/kg I.V., dose cumulée de 39,1 mg/kg I.D.
  hypertension à la noradrénaline: augmentée
[4]
  propriétés antidépressives et sédatives: propriétés antidépressives et sédatives
Chiens [5]
  débits fémoraux: cet effet étant confirmé par l'injection I.M. de 10 mg/kg
